Entries after “also recorded” stand apart in the source; their conditions may differ.
Assays:
FAAH [1] = biological target: T1, FAAH (Rattus norvegicus, UniProt P97612); experiment: FAAH enzyme assay, COS-7-FAAH-eGFP homogenates; format: biochemical; conditions: 100 μM inhibitor, 100 μM [14C]AEA, p>0.05
T1 construct: N-terminal transmembrane helix (residues 1-29) in red, residues 30-579 in black, and eGFP in green; expressed in transfected cells
T1 sequence (P97612 1-579): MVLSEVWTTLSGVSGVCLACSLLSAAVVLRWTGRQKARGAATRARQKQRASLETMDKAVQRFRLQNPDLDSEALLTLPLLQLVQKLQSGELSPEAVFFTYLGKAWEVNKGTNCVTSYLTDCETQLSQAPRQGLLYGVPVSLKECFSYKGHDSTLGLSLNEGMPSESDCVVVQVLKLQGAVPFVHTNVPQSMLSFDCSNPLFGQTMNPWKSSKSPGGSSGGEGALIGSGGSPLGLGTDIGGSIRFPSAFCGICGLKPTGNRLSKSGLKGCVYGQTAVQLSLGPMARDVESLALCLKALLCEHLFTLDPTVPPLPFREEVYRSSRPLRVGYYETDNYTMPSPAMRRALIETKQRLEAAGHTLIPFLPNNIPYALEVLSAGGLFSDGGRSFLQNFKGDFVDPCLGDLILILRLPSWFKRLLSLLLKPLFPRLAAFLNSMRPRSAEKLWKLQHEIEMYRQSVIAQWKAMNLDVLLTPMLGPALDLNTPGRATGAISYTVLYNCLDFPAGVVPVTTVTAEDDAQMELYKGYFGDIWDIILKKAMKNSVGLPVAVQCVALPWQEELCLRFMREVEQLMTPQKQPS
Method: (§1) FAAH activity assays were performed as previously described. Briefly, cell homogenates were incubated with 100 μM AEA+0.1 μCi [^14C]AEA in Tris-HCl (pH 9) containing 0.1% BSA. For activity analysis, time and total protein were adjusted to maintain substrate conversion at approximately 10%. […] AEA (100 μM) for 1 or 30 min, respectively. Reactions were stopped by the addition of two volumes of 1:1 chloroform:methanol and the phases separated by centrifugation. The methanol phase (containing [^14C]ethanolamine) was sampled and quantified using a Beckman LS 6500 scintillation counter.

COS7-FAAH-eGFP cells = experiment: [14C]AEA cellular uptake and hydrolysis in COS7-FAAH-eGFP cells; format: cell-based, African green monkey
Method: (§2) COS-7 and N18TG2 cells were grown in DMEM supplemented with 10% fetal bovine serum, 100 U/ml penicillin/streptomycin, 2 mM L-glutamine, and 1 mM sodium pyruvate in a humidified incubator containing 95% air and 5% CO2. Transfections were carried out using Lipofectamine 2000 (Invitrogen, Carlsbad, Calif.) according to the manufacturer's instructions. For stable cell selection, forty eight hours after transfection cells were expanded in medium containing 750 μg/ml geneticin (Invitrogen, Carlsbad, Calif.). Four weeks later, stable cells were subjected to flow cytometry at the Flow Cytometry Core Facility in Stony Brook University and cells expressing identical levels of the indicated FAAH-eGFP fusion proteins were collected and expanded.
(§3) Cells were plated at ˜90% confluency in 35 mm dishes, washed twice in DMEM and preincubated with the desired pharmacological compounds or vehicle controls (EtOH or DMSO). The cells were washed twice in DMEM and subsequently incubated for 5 min, 10 or 3 sec, with 750 μl [^14C]AEA (100 nM) that was pre-equilibrated for 75 min in medium containing 0.15% BSA. The equilibration step is necessary to avoid uneven distribution of the radiotracer and to ensure that it is stable in solution pre-bound to BSA. Less than 1% of AEA was hydrolyzed during this pre-equilibration step (data not shown). Following the incubation, 750 μl of ice-cold DMEM+0.15% BSA was added to the plates, the media separated from cells, which were then washed with DMEM+0.15% BSA to remove non-specifically bound AEA. The cells were scraped three times with 400 μl of ice-cold 2 mM EDTA in PBS and chloroform:methanol (1:1) added to the media and cells and the phases separated by centrifugation. The resulting aqueous (containing [^14C]ethanolamine) and organic (containing intact [^14C]AEA) phases were counted by liquid scintillation counting. [^14C]AEA uptake was determined by summing the production of [^14C]ethanolamine in the media and cells with intact cellular [^14C]AEA. Hydrolysis of [^14C]AEA was quantified by production of [^14C]ethanolamine in the media and cells. Blanks consisting of either untransfected COS-7 cells or N18TG2 cells treated with 100 nM of the FAAH inhibitor URB597 were subtracted from all conditions.

N18TG2 cells = experiment: [14C]AEA cellular uptake and hydrolysis in N18TG2 cells; format: cell-based, mouse
Method: as §2, §3

FAAH [2] = biological target: T2, FAAH (Mus musculus, UniProt O08914); experiment: FAAH enzyme assay, N18TG2 homogenates; format: biochemical; conditions: 100 μM inhibitor, 100 μM [14C]AEA, p>0.05
T2 construct: endogenous in cells; host or cells: N18TG2 mouse neuroblastoma cells, used as homogenate
T2 sequence (O08914 1-579): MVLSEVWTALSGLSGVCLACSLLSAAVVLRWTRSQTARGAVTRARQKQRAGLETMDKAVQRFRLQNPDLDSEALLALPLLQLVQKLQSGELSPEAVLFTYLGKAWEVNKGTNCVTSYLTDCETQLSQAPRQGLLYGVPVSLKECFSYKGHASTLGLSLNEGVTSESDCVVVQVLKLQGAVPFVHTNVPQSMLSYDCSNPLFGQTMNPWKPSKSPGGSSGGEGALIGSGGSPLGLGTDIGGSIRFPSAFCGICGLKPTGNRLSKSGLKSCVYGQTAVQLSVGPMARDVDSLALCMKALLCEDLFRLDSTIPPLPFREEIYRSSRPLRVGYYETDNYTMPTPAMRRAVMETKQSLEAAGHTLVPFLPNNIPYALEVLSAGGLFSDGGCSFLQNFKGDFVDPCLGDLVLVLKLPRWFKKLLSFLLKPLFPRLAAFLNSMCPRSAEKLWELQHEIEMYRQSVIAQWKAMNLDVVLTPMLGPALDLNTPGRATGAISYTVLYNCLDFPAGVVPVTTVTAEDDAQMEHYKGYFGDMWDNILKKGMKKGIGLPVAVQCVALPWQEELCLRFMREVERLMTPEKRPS
Method: as §1

[3] = stability of AEA during pre-equilibration in medium with BSA; format: physicochemical; conditions: 75 min in medium containing 0.15% BSA, data not shown
Method: as §3, with “Blanks consisting of either untransfected COS-7 cells or N18TG2 cells treated with 100 nM of the FAAH inhibitor URB597 were subtracted from all conditions.” left out

[4] = 20-100 μM BMS309403, dose-dependent
[5] = 100 μM, 5 min, vs vehicle, p<0.05
[6] = oleic acid 100 μM, 5 min incubation, [14C]AEA 100 nM

| Compound | [14C]AEA hydrolysis (FAAH activity) by homogenates (FAAH [1]) | intracellular hydrolysis of [14C]AEA following uptake (COS7-FAAH-eGFP cells; 3 sec, 20-100 μM) | levels of cell associated [14C]AEA (COS7-FAAH-eGFP cells; 3 sec, data not shown) | maximal inhibition of [14C]AEA uptake (COS7-FAAH-eGFP cells; [4]) [%] | [14C]AEA hydrolysis (metabolism), effect in words (COS7-FAAH-eGFP cells; 20-100 μM, vs vehicle) | [14C]AEA uptake, effect in words (COS7-FAAH-eGFP cells; 20-100 μM, vs vehicle) | intracellular hydrolysis of [14C]AEA following uptake (N18TG2 cells; 3 sec, 20-100 μM) | levels of cell associated [14C]AEA (N18TG2 cells; 3 sec, data not shown) | maximal inhibition of [14C]AEA uptake (N18TG2 cells; [4]) [%] | [14C]AEA hydrolysis (metabolism), effect in words (N18TG2 cells; 20-100 μM, vs vehicle) | [14C]AEA uptake, effect in words (N18TG2 cells; 20-100 μM, vs vehicle) | [14C]AEA hydrolysis (FAAH activity) by homogenates (FAAH [2]) | AEA hydrolyzed during pre-equilibration step [3] | [14C]AEA hydrolysis, effect in words (COS7-FAAH-eGFP cells; [5]) | [14C]AEA uptake, effect in words (COS7-FAAH-eGFP cells; [5]) | reduction of [14C]AEA uptake (COS7-FAAH-eGFP cells; [6]) [%] | [14C]AEA hydrolysis, effect in words (N18TG2 cells; [5]) | [14C]AEA uptake, effect in words (N18TG2 cells; [5]) | reduction of [14C]AEA uptake (N18TG2 cells; [6]) [%] |
| --- | --- | --- | --- | --- | --- | --- | --- | --- | --- | --- | --- | --- | --- | --- | --- | --- | --- | --- | --- |
| CCc1c(-c2ccccc2)c(-c2ccccc2)nn1-c1ccccc1-c1cccc(OCC(=O)O)c1 [BMS309403] | did not inhibit; also recorded: not inhibited | reduced | without affecting | 48 | proportionally and significantly reduced; also recorded: significantly decreased | significantly decreased | reduced | without affecting | 57 | proportionally and significantly reduced; also recorded: significantly decreased | significantly decreased | did not inhibit; also recorded: not inhibited |  |  |  |  |  |  |  |
| CCCCC/C=C\C/C=C\C/C=C\C/C=C\CCCC(=O)NCCO [AEA, arachidonoyl ethanolamide] |  |  |  |  |  |  |  |  |  |  |  |  | Less than 1% |  |  |  |  |  |  |
| CCCCCCCC/C=C\CCCCCCCC(=O)O [oleic acid] | did not inhibit; also recorded: not inhibited |  |  |  |  |  |  |  |  |  |  | did not inhibit; also recorded: not inhibited |  | significantly reduced | significantly reduced | 25 | significantly reduced | significantly reduced | 53 |
